Assay results taken from PubChem BioAssay (NCI).
Several values for one entry are separate records, joined by “and”; a condition that tells them apart may be missing. Identical values can stand only once.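 Test compounds were applied to cells in 96-well plates for 48 hours at 5 doses. At the GI50, growth is halved. TGI: total growth inhibition.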 Where a SMILES comes first, the peptide text is derived from it. The star is where a group is joined. Boc = CC(C)(C)OC(=O)*

Tests used:
Assay in all cases: NCI-60 cell line screen, 48 h
CCRF-CEM leukemia = system: CCRF-CEM leukemia
MALME-3M melanoma = system: MALME-3M melanoma
MCF7 breast = system: MCF7 breast
MDA-MB-435 = system: MDA-MB-435
MDA-N = system: MDA-N
NCI/ADR-RES ovarian = system: NCI/ADR-RES ovarian
PC-3 prostate = system: PC-3 prostate
SF-539 CNS = system: SF-539 CNS
T-47D breast = system: T-47D breast
NCI-H522 lung = system: NCI-H522 lung

| Compound | TGI (CCRF-CEM leukemia) | TGI (MALME-3M melanoma) | TGI (MCF7 breast) | TGI (MDA-MB-435) | TGI (MDA-N) [µM] | TGI (NCI/ADR-RES ovarian) | TGI (PC-3 prostate) | TGI (SF-539 CNS) | TGI (T-47D breast) [µM] | TGI (NCI-H522 lung) | GI50 (CCRF-CEM leukemia) | GI50 (MDA-MB-435) [µM] | GI50 (NCI-H522 lung) [µM] | GI50 (SF-539 CNS) | GI50 (PC-3 prostate) [µM] | GI50 (MCF7 breast) [µM] | GI50 (MDA-N) [µM] | GI50 (MALME-3M melanoma) [µM] | GI50 (NCI/ADR-RES ovarian) | GI50 (T-47D breast) |
| --- | --- | --- | --- | --- | --- | --- | --- | --- | --- | --- | --- | --- | --- | --- | --- | --- | --- | --- | --- | --- |
| Cc1[nH]c(=O)nc(NNCc2ccc(Cl)cc2)c1C(=O)Nc1ccc(Cl)cc1 | > 100 µM | > 100 µM | > 100 µM | > 100 µM | > 100 | > 100 µM | > 100 µM | > 100 µM | > 100 |  |  |  |  |  |  |  |  |  |  |  |
| COC(=O)CC1c2ccccc2N2C(=O)Cc3c([nH]c4ccccc34)C12 (centres undefined) | > 100 µM | > 100 µM | > 100 µM | > 100 µM | > 100 | > 100 µM | > 100 µM |  | > 100 | > 100 µM |  |  |  |  |  |  |  |  |  |  |
| c1ccc([I+]c2ccccc2)cc1 | > 100 µM | > 100 µM | > 100 µM | > 100 µM | > 100 | > 100 µM | > 100 µM | > 100 µM | > 100 | > 100 µM |  |  |  |  |  |  |  |  |  |  |
| NS(=O)(=O)c1ccc(/C=C/c2ccc(O)cc2)cc1 | > 100 µM | 78.1 µM | > 100 µM | > 100 µM | > 100 | > 100 µM | 97.7 µM | 37.7 µM | 71.6 | 50.2 µM | 4.5 µM | 20.3 | 13.8 | 7.4 µM |  |  |  |  |  |  |
| CCOC(=O)/C=C(/C)Nc1nc2c(c(C(=O)OC)c1C#N)CCCC2 | > 100 µM | > 100 µM | > 100 µM | > 100 µM | > 100 | > 100 µM | > 100 µM |  | > 100 | > 100 µM |  |  |  |  |  |  |  |  |  |  |
| CC(=O)Oc1ccc2c3c1O[C@H]1[C@H](O)CC[C@@]4(O)[C@@H](C2)N(C)CC[C@]314 |  | > 100 µM | > 100 µM | > 100 µM | > 100 | > 100 µM | > 100 µM | > 100 µM | > 100 | > 100 µM |  |  |  |  |  |  |  |  |  |  |
| Cc1nc2sccn2c1/C=C1/C(=O)Nc2cccc(Cl)c21 | > 100 µM | > 100 µM | > 100 µM | 39.3 µM | 38.1 | > 100 µM | > 100 µM | > 100 µM | > 100 | > 100 µM |  |  |  |  |  |  |  |  |  |  |
| COC(=O)/C=C1/OC(c2ccc(OC)cc2)=C(Cl)C1=O | 17.7 µM | 30.7 µM | 25 µM | 30.4 µM | 32.7 | 66.5 µM | 28.9 µM | 41 µM | 36.6 | 28.6 µM |  |  |  |  |  |  |  |  |  |  |
| C#CC1(O)CCCCCCCCC2(CCCCCCCC1)OCCO2 |  | 34.3 µM | 36.3 µM | 33.5 µM | 35.9 | 34.7 µM | 25.9 µM | 31.8 µM | 33.8 | 6.42 µM |  |  |  |  |  |  |  |  |  |  |
| Cc1cccc(N/C(Sc2ccccc2)=C(/C(Cl)=C(Cl)Cl)[N+](=O)[O-])c1 | > 100 µM | 30.2 µM | 91.3 µM | 34 µM | 45.8 | 39.1 µM | > 100 µM | 31.3 µM | 42.7 |  |  |  |  |  |  |  |  |  |  |  |
| Cc1cc(S(=O)(=O)/N=C(\[N-]S(=O)(=O)c2cc(Cl)sc2Cl)[n+]2ccc(N(C)C)cc2)c(S)cc1Cl | > 100 µM |  | > 100 µM | > 100 µM | > 100 | > 100 µM | > 100 µM | > 100 µM | > 100 | 86.1 µM |  |  |  |  |  |  |  |  |  |  |
| CCOC(=O)c1nc2ccc(C(F)(F)F)cc2nc1Oc1ccc(C(=O)OC)cc1 | > 100 µM |  | > 100 µM | > 100 µM |  | > 100 µM | > 100 µM | > 100 µM | > 100 |  |  |  |  |  |  |  |  |  |  |  |
| Cc1cnc2[nH]c(-c3ccc4ccccc4c3)cc(=O)c2c1 |  |  | 8.68 µM |  |  |  | > 100 µM | 9.07 µM | > 100 | 2.25 µM |  |  |  |  | 0.404 |  |  |  |  |  |
| CC1=C(C)SC(=C2Sc3nc(O)[nH]c(=O)c3S2)S1 | > 100 µM | 50.8 µM | > 100 µM | > 100 µM |  | > 100 µM | > 100 µM | > 100 µM |  | > 100 µM |  |  |  |  |  |  |  |  |  |  |
| CCOc1cc2c(c(OCC)c1O)CC[C@@H]1[C@@H]2CC[C@]2(C)[C@@H](O)CC[C@@H]12 | > 100 µM | 66.4 µM | 53.2 µM | 3.05 µM | 1.58 | 46 µM |  | 6.71 µM | 54.3 | 23.1 µM |  |  |  |  |  |  |  |  |  |  |
| COc1cc2c(c(OC)c1OC)-c1ccc(SC)cc1C(O)CC2 (centres undefined) | > 100 µM | > 100 µM | > 100 µM and 36.1 µg/mL | 17 µg/mL | 0.461 |  | > 100 µM and 63.9 µg/mL |  | > 100 | 235 nM and 33.7 µg/mL |  |  |  |  |  |  |  |  |  |  |
| COc1cc(OC)c2[nH]c3c(O)c(-c4c(C)cc5c([nH]c6c(OC)cc(OC)cc65)c4O)c(C)cc3c2c1 |  |  | 18.9 µM | 24.9 µM | 15.7 | 16.6 µM | 15.2 µM | 16.8 µM | 17.7 | 16.6 µM |  | 12 |  |  |  | 8.68 | 8.83 |  |  |  |
| COc1ccc2nc3cccc([N+](=O)[O-])c3c(NCCCO)c2c1 | 0.0572 µM and 0.133 µM | 0.00344 µM and 0.0202 µM | 0.0134 µM and 0.0389 µM | 0.0017 µM and 0.0128 µM |  | 0.0276 µM and 0.248 µM | 0.0104 µM and 0.103 µM | 0.00518 µM and 0.0418 µM |  | 0.00662 µM | 0.00583 µM and 0.0153 µM |  | 0.00165 | 0.00141 µM and 0.0132 µM |  |  |  | 0.00116 | 0.00616 µM and 0.0229 µM | 0.0292 µM and 0.136 µM |
| O=c1oc2c(Cl)cc(Cl)cc2cc1C1=CSC2=NCCN12 | > 100 µM |  | 88.9 µM | > 100 µM | > 100 | > 100 µM | > 100 µM | > 100 µM | > 100 |  |  |  |  |  |  |  |  |  |  |  |
| COC(=O)[C@H](Cc1ccc(O)cc1)NC(=O)[C@H](Cc1ccc(O)cc1)NC(=O)OC(C)(C)C (Boc-Tyr-Tyr-OMe) |  | > 100 µM | > 100 µM |  | > 100 | > 100 µM | > 100 µM | > 100 µM |  | > 100 µM |  |  |  |  |  |  |  |  |  |  |
| CC1(C)N=C(C2CCCN2C(=O)OCc2ccccc2)OC1=O (centres undefined) | > 100 µM | > 100 µM | > 100 µM | > 100 µM | > 100 | > 100 µM | > 100 µM | > 100 µM |  | > 100 µM |  |  |  |  |  |  |  |  |  |  |
